Data on 13 molecules can be found in ChEMBL document CHEMBL1201862, “PubChem BioAssay data set” (2004).

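Values below derive from 48-hour exposures of cells grown in 96-well plates, with endpoints linearly interpolated between the two concentrations bracketing the appropriate inhibition level. Abbreviation: GI50, concentration required for 50% inhibition of growth.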 Calls of active or inactive are those of the source. Rule as the data show it: active = GI50 up to about 1.1 µM and inactive = higher.

Test systems include SK-OV-3; MDA-MB-435; NCI-H522; OVCAR-3; UACC-62; NCI-H460; BT-549; SF-539; M14; RXF 393; HCT-116; TK-10; HCT-15; CCRF-CEM; 786-0; Hs-578T; CAKI-1; SNB-75; U-251.
Holding throughout (test): NCI anticancer screen, dose series, 48 h

In the case of `COc1ccc(/N=C2\C(=N/c3ccc(OC)cc3)N(c3ccc(N(C)C)cc3)C(=S)N2c2ccc(OC)cc2)cc1`, the GI50 in the assay on SK-OV-3 is > 100 µM (inactive); in the assay with MDA-MB-435, > 100 µM (inactive); with NCI-H522 it was > 100 µM (inactive); in the assay with OVCAR-3, > 100 µM (inactive); in the assay with UACC-62, > 100 µM (inactive); in the assay on NCI-H460, 10.9 µM (inactive). In addition, the GI50 in the assay with BT-549 is > 100 µM (inactive); in the assay with SF-539, 0.184 µM (active); in the assay on M14, > 100 µM (inactive); in the assay on RXF 393, 0.0378 µM (active); in the assay with HCT-116, > 100 µM (inactive); with TK-10, > 100 µM (inactive). In addition, the GI50 in the assay with HCT-15 is > 100 µM; in the assay with CCRF-CEM, > 100 µM (inactive); with 786-0 it was 0.767 µM (active).

For the molecule `O=C(O)C(Cc1ccccc1)NCc1c(O)ccc2c(-c3ccccc3)cc(=O)oc12` (configuration not stated), the GI50 in the assay with SK-OV-3, with MDA-MB-435, with NCI-H522, in the assay with Hs-578T, in the assay on OVCAR-3 and with UACC-62 was > 100 µM (inactive) in each case. Further, the GI50 in the assay with CAKI-1, with NCI-H460, in the assay on SNB-75, with SF-539, with M14 and in the assay with RXF 393 was > 100 µM (inactive) throughout. The GI50 was > 100 µM (inactive) in the assay on HCT-116; > 100 µM (inactive) in the assay with U-251; > 100 µM (inactive) in the assay with TK-10; > 100 µM with HCT-15; > 100 µM (inactive) in the assay on CCRF-CEM; > 100 µM (inactive) with 786-0.

`COC(=O)c1cc2c(cc1Cl)Sc1nnc(Nc3ccc(C)cc3)n1S2(=O)=O`: the GI50 in the assay with SK-OV-3 is 11.9 µM (inactive); in the assay with MDA-MB-435 it was 7.19 µM (inactive); with NCI-H522, 2.67 µM (inactive); in the assay with Hs-578T, 4.9 µM (inactive); with OVCAR-3 it was 2.19 µM (inactive); in the assay on UACC-62, 12.3 µM (inactive). Moreover, the GI50 was 10.4 µM (inactive) in the assay with CAKI-1; 11.6 µM (inactive) in the assay on NCI-H460; 13.4 µM (inactive) in the assay on BT-549; 1.17 µM (inactive) in the assay with SF-539; 12.7 µM (inactive) with M14; 3.94 µM (inactive) in the assay on RXF 393. In addition, the GI50 is 8.93 µM (inactive) with HCT-116; 3.87 µM (inactive) in the assay with U-251; 14.3 µM (inactive) with TK-10; 3.97 µM in the assay with HCT-15; 3.78 µM (inactive) with CCRF-CEM; 7.69 µM (inactive) with 786-0.

For `COc1ccccc1CNC(=O)[C@H](Cc1ccc(O)cn1)NC(C)=O`, the GI50 in the assay with SK-OV-3, with MDA-MB-435, in the assay on NCI-H522, with Hs-578T, with OVCAR-3 and in the assay with UACC-62 was > 100 µM (inactive) each time. For the same molecule, the GI50 in the assay on CAKI-1, in the assay with NCI-H460, in the assay with BT-549, with SF-539, in the assay with M14 and with RXF 393 was > 100 µM (inactive) in each case. For the same molecule, the GI50 was > 100 µM (inactive) in the assay with HCT-116; > 100 µM (inactive) with U-251; > 100 µM (inactive) with TK-10; > 100 µM with HCT-15; > 100 µM (inactive) with CCRF-CEM; > 100 µM (inactive) in the assay with 786-0.

For `Cc1ccc(O)c(-c2cscn2)c1`, the GI50 in the assay on SK-OV-3 is 32.6 µM (inactive); in the assay with MDA-MB-435, 52.6 µM (inactive); in the assay with Hs-578T, 32.9 µM (inactive); in the assay on OVCAR-3, 35.2 µM (inactive); in the assay with UACC-62, 55 µM (inactive); in the assay with CAKI-1, 39.3 µM (inactive). In addition, the GI50 with NCI-H460 is 28.5 µM (inactive); with BT-549, 74.5 µM (inactive); in the assay with SF-539, 30.8 µM (inactive); with M14 it was 54.2 µM (inactive); with HCT-116, 30.4 µM (inactive); in the assay with TK-10, 44.8 µM (inactive). In addition, the GI50 was 31.6 µM with HCT-15, 0.37 µM (active) in the assay on CCRF-CEM and 33.2 µM (inactive) with 786-0.

Regarding `CN(C)C12C=CC=CC3=C(c4ccccc4)C(c4ccccc4)=C(c4ccccc4)C31c1ccccc1C2` (configuration not stated), the GI50 in the assay on SK-OV-3, with MDA-MB-435, with NCI-H522, in the assay with Hs-578T, with NCI-H460 and in the assay on SNB-75 was > 100 µM (inactive) each time. Also, the GI50 in the assay with SF-539 is > 100 µM (inactive); in the assay with M14, > 100 µM (inactive); with HCT-116, > 100 µM (inactive); in the assay on U-251 it was > 100 µM (inactive); with TK-10, > 100 µM (inactive); with HCT-15 it was > 100 µM. Further, the GI50 with CCRF-CEM and in the assay with 786-0 was > 100 µM (inactive) each time.

Take `CC(/C=C/c1ccccc1)=N\NC(N)=S`: the GI50 in the assay on SK-OV-3 is 45.4 µM (inactive); in the assay on MDA-MB-435 it was 28.1 µM (inactive); in the assay on OVCAR-3, 24.5 µM (inactive); in the assay on CAKI-1, 35.7 µM (inactive); in the assay with NCI-H460, 61.2 µM (inactive); in the assay with BT-549, 29.9 µM (inactive). Also, the GI50 with SF-539 was 31.7 µM (inactive); in the assay with M14, 26.5 µM (inactive); with HCT-116, 35.7 µM (inactive); in the assay on U-251, 40.5 µM (inactive); with TK-10 it was 39.4 µM (inactive); in the assay with HCT-15, 27.4 µM. Besides, the GI50 in the assay on CCRF-CEM is 49.7 µM (inactive); in the assay with 786-0, 34 µM (inactive).

In the case of `COc1cc(Nc2cnc3ccc(C(F)(F)F)cc3n2)cc(OC)c1OC`, the GI50 with OVCAR-3 was > 100 µM (inactive); with NCI-H460, 12.9 µM (inactive); with SF-539, 32.1 µM (inactive); in the assay on RXF 393, 68.4 µM (inactive); in the assay with HCT-116, 45.8 µM (inactive); in the assay on U-251, > 100 µM (inactive). Also, the GI50 in the assay on TK-10 is 38.1 µM (inactive); in the assay on HCT-15 it was 3.95 µM; with CCRF-CEM it was 24.7 µM (inactive); in the assay with 786-0 it was 13.5 µM (inactive).

For the molecule `COc1ccc(S(=O)(=O)Nc2ccc(-c3csc(N4C(=O)/C(=C/c5cccs5)N=C4c4ccccc4)n3)cc2)cc1Cl`, the GI50 with SK-OV-3 was > 100 µM (inactive); in the assay on MDA-MB-435, 44 µM (inactive); in the assay with NCI-H522, 22.3 µM (inactive); in the assay with Hs-578T, 35.2 µM (inactive); in the assay on OVCAR-3 it was 43.6 µM (inactive); in the assay on UACC-62, 31.1 µM (inactive). The GI50 is > 100 µM (inactive) in the assay on CAKI-1; 41.1 µM (inactive) in the assay with NCI-H460; 44.8 µM (inactive) in the assay on SNB-75; 54.2 µM (inactive) in the assay on SF-539; 34.7 µM (inactive) in the assay with M14; 29.5 µM (inactive) with RXF 393. In addition, the GI50 in the assay with HCT-116 is 30.9 µM (inactive); with U-251, 34.9 µM (inactive); in the assay on TK-10, 56.1 µM (inactive); with HCT-15, 24.9 µM; in the assay with 786-0 it was 57.5 µM (inactive).

As for `CCOC(=O)C(C)(C(=O)OCC)/C(Cl)=C\Cl`, the GI50 with SK-OV-3, in the assay with MDA-MB-435, in the assay on NCI-H522, in the assay with Hs-578T, in the assay with OVCAR-3 and with UACC-62 was > 100 µM (inactive) in each case. Besides, the GI50 in the assay on CAKI-1 was > 100 µM (inactive); in the assay with NCI-H460 it was 22.6 µM (inactive); with SNB-75, 66.1 µM (inactive); with SF-539, > 100 µM (inactive); in the assay on M14, > 100 µM (inactive); with RXF 393, > 100 µM (inactive). In addition, the GI50 with HCT-116, in the assay with TK-10, in the assay on CCRF-CEM and in the assay with 786-0 was > 100 µM (inactive) each time.

Take `CCOC(=O)/C=C(/C(=O)OCC)n1cc(Cl)c(=O)n(CC(=O)OCC)c1=O`: the GI50 is > 25 µM (inactive) with SK-OV-3; 4.95 µM (inactive) with MDA-MB-435; 1.45 µM (inactive) in the assay on NCI-H522; 5.98 µM (inactive) in the assay on OVCAR-3; 4.53 µM (inactive) in the assay on UACC-62; 3.94 µM (inactive) in the assay with CAKI-1. In addition, the GI50 in the assay with NCI-H460 is 9.02 µM (inactive); with SNB-75 it was 5.13 µM (inactive); with BT-549, 5.92 µM (inactive); in the assay on SF-539, 5.04 µM (inactive); with M14, 4.57 µM (inactive); in the assay on RXF 393 it was 4.57 µM (inactive). Besides, the GI50 was 4.97 µM (inactive) with HCT-116; 5.83 µM (inactive) in the assay with U-251; 4.14 µM (inactive) in the assay on TK-10; 5.46 µM in the assay with HCT-15; 0.444 µM (active) with CCRF-CEM; 0.828 µM (active) with 786-0.

As to `COc1nc2sc3c(c2c(=O)n1CCCSSCCCn1c(OC)nc2sc4c(c2c1=O)CCCC4)CCCC3`, the GI50 in the assay on SK-OV-3, in the assay on MDA-MB-435, with NCI-H522, with UACC-62, with CAKI-1 and in the assay on SNB-75 was > 100 µM (inactive) throughout. Moreover, the GI50 in the assay on SF-539, in the assay on M14, with RXF 393, in the assay with HCT-116, in the assay with U-251 and in the assay with TK-10 was > 100 µM (inactive) throughout. Besides, the values for the GI50 with HCT-15, in the assay on CCRF-CEM and with 786-0 were > 100 µM, > 100 µM (inactive) and > 100 µM (inactive), respectively.

On to `C=C1CCCCCCCCCCC1[S+]([O-])c1ccccc1` (configuration not stated), for which the GI50 with SK-OV-3 was 38 µM (inactive); in the assay with MDA-MB-435 it was 23.9 µM (inactive); in the assay with Hs-578T, 44.5 µM (inactive); in the assay with OVCAR-3, 34.1 µM (inactive); in the assay with UACC-62 it was 45.4 µM (inactive); in the assay with CAKI-1, > 100 µM (inactive). The GI50 was 58.9 µM (inactive) with NCI-H460; 21 µM (inactive) in the assay on SF-539; 27.7 µM (inactive) in the assay with M14; 26.5 µM (inactive) in the assay with RXF 393; 30.5 µM (inactive) in the assay on HCT-116; 21 µM (inactive) in the assay on U-251. Besides, the GI50 was 41.7 µM with HCT-15 and 18.8 µM (inactive) with 786-0.
